Data on eight compounds can be found in patent US20090253709A1 (NATIONAL DEFENSE MEDICAL CENTER, priority 2008, published 2009).

Like-named read-outs stand apart in the source and are kept apart here.

In data set [1] the test system is different cancer cell lines. The data set can be described thus: In vitro cytotoxicity, Development Therapeutics Program, summary over all cell lines. The class given is cell-based. Conditions: 1.0×10^−5 M. The text has this:
(§1) From the in vitro experiments of the Development Therapeutics Program of the Cancer Research Institute, the United States, it was known that the synthetic heterocyclic anthraquinone derivatives of the present invention have different inhibition levels to the different cancer cell lines under the concentration of 1.0×10^−5 M. Please refer to Table 2, which is the result of in vitro cytotoxicity of 2,7-disubstituted anthraquinone derivatives of the present invention.

The test system of data set [2] is EKVX. The data set can be described thus: In vitro cytotoxicity, Development Therapeutics Program. In kind it is cell-based. Conditions: non-small cell lung cancer, 1.0×10^−5 M.
From the text: as §1

Data set [3] relates to HT29. Described as above. Conditions: HT29, colon cancer; 1.0×10^−5 M. In kind it is cell-based.
From the text: as §1

In data set [4] the test system is hTERT expression. The data set can be described thus: SEAP assay, H1299/PhTERT-driven SEAP system. The class given is cell-based, human. Conditions: for activity at 1 µM / activity at 10 µM / activity at 100 µM: Homo sapiens. The text has this:
The condition of the cells for selecting the telomerase inhibitor must be the cancer cells with telomerase activity. H1299 is a non-small cell lung cancer cell line with telomerase activity. The hTERT communication gene linked behind PhTERT which is located at the fifth chromosome of H1299 cell can be expressed; however, this expression is hard to detect. Therefore, the plasmid having the SEAP communication gene linked behind PhTERT was transfected into H1299 cells. Under the identical condition, after PhTERT was activated, the SEAP communication gene linked behind the plasmid was also activated. This gene could be detected by this analytic method while expressing.
If additionally added reagent can inhibit PhTERT, the linked SEAP communication gene will not be expressed, and the hTERT communication gene linked behind PhTERT at the fifth chromosome will not be expressed. […]
The cellular medium after the cellular incubation was transferred into the eppondorf tube, and the activity of endogeneous alkaline phosphatase was inactivated at 65° C. for 10 minutes. After centrification, the mixture was obtained by mixing 50 μl of the supernatant with the equal volume of the SEAP buffer. The mixture and the substrate (120 mM of p-nitrophenylphosphate) were preheated at 37° C. for 10 minutes respectively, and the mixture and the substrate were mixed at a ratio of 1:10 and reacted at 37° C. The absorbance of visible light at 405 nm was determined at the appropriate time intervals, and the enzymatic activity of SEAP was represented by the speed of the increasing absorbance at 405 nm.
The selection of telomerase inhibitors of the anthraquinone compounds provided in the present invention was performed by the H1299/PhTERT-driven SEAP system. SEAP is the communication gene in this drug selection model. The SEAP inhibition was shown as follows. The quantitative cellular medium obtained after the 24-hour drug-treatment and the identical inactivation was reacted with the quantitative SEAP substrate, and the absorbance at 405 nm was detected for 5 time intervals. Subsequently, the linear slope of absorbance to the measuring time was calculated, and the variance of absorbance at 405 nm per minute was represented and compared with the SEAP-producing result of drug-untreated H1299 cells. In addition, the influence of the cell-treated drug solution to the cellular proliferation and the drug toxicity to the cells were considered, and the cellular growth was evaluated by the MTT assay. The drug-treated cells were analyzed by the SEAP assay and the data analysis of MTT assay at the same time. Both results were compared so as to delete the influence of cell number or the activity to SEAP, and the dose-dependent phenomenon could be anticipated in the range of drug concentration designed by the laboratory.
In the preliminary selection, the highest concentration was 1000 μM, and 10-fold serial dilutions were done. Therefore, the final concentrations for treating cells were 1 μM, 10 μM and 100 μM, and the drug concentrations were repeated for 5 times. Since the chemically-synthetic drugs have colors thereon, the SEAP value of drug-treatment without cells was also determined to be the background value which was deducted while treating with the drugs. The candidate drug for inhibiting telomerase on the hTERT gene expression level was evaluated and anticipated.

The test system of data set [5] is H1299. Kind of data set: MTT assay in H1299 cells. The class given is cell-based. Particulars: for cytotoxicity to H1299 cancer cells compared with mitoxantrone: MTT assay. In a few lines:
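H1299 cells, 2×10^3 per well, treated with drug 48 h. MTT (5 mg/ml stock) added for 4 h at 37° C, then SDS/DMF lysis overnight; absorbance at 570 nm gives viability, used alongside SEAP reporter readout to correct for cell number.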
For orientation: Formazan colour is commonly taken as a measure of viable cells.

Data set [6] relates to telomerase. The data set can be described thus: Telomeric repeat amplification protocol (TRAP). The class given is biochemical. Conditions: compounds at 100, 10 and 1 μM; gel electrophoresis.
Setting [7] is: NCI-H1299, H1299, compound concentration 1 μM, read-out: SEAP (Inhibition μM ± SD).
The mark [8] stands for this setting: NCI-H1299, H1299, compound concentration 10 μM, read-out: SEAP (Inhibition μM ± SD).
The mark [9] stands for this setting: NCI-H1299, H1299, compound concentration 100 μM, read-out: SEAP (Inhibition μM ± SD).
The mark [10] stands for this setting: NCI-H1299, read-out: SEAP (Inhibition μM ± SD).

For `O=C1c2ccc(NC(=O)C3CC3)cc2C(=O)c2cc(NC(=O)C3CC3)ccc21` [Compound 32, 2,7-Bis(cyclopropanecarbonamido)anthraquinone], the “Cellular growth rate (%), Mean” value in data set [1] was 91.54%. Further, the “Cellular growth rate (%)” value is on record as 94.31% in data set [2] and 106.26% in data set [3]. Further, the activity at 1 µM in data set [4] (setting [7]) is 80 ± 1%. The activity at 10 µM in data set [4] (setting [8]) was 81 ± 1%. For the same compound, the activity at 100 µM in data set [4] (setting [9]) is 81 ± 1%. Moreover, in data set [5], the “cytotoxicity to H1299 cancer cells compared with mitoxantrone” value (from here on “cytotoxicity … compared with mitoxantrone”) was “better than”.
`CCNCC(=O)Nc1ccc2c(c1)C(=O)c1cc(NC(=O)CNCC)ccc1C2=O` [Compound 10, 2,7-Bis[2-(ethylamino)acetamido]anthraquinone]: in data set [6], the “telomerase inhibition effect in TRAP assay” value was “telomerase inhibition effect”. For the same compound, in data set [4] (setting [10]), the activity at 1 µM was 60 ± 10%, the activity at 10 µM amounted to 35 ± 5% and the activity at 100 µM worked out at 34 ± 3%. Moreover, the “cytotoxicity … compared with mitoxantrone” value in data set [5] is reported as “better than”.
On to `O=C(CCN1CCCC1)Nc1ccc2c(c1)C(=O)c1cc(NC(=O)CCN3CCCC3)ccc1C2=O` [Compound 18, 2,7-Bis[3-(pyrrolidino)propionamido]anthraquinone], for which the “Cellular growth rate (%), Mean” value in data set [1] is listed as 30.97%. In addition, the “Cellular growth rate (%)” value is 58.72% in data set [2] and 19.47% in data set [3]. Further, the activity at 1 µM in data set [4] (setting [7]) stood at 73 ± 11%. Also, the activity at 10 µM in data set [4] (setting [8]) was 29 ± 15%. In data set [4] (setting [9]), the activity at 100 µM came out at 17 ± 13%.
For the compound `CCN(CC)CCC(=O)Nc1ccc2c(c1)C(=O)c1cc(NC(=O)CCN(CC)CC)ccc1C2=O` [Compound 16, 2,7-Bis[3-(diethylamino)propionamido]anthraquinone], in data set [1], the “Cellular growth rate (%), Mean” value was determined as 16.33%. Further, the results for the “Cellular growth rate (%)” value in data set [2] and in data set [3] were 59.99% and 3.30%, respectively. The “telomerase inhibition effect in TRAP assay” value in data set [6] is listed as “telomerase inhibition effect”. In addition, in data set [4] (setting [7]), the activity at 1 µM is 76 ± 19%. Also, the activity at 10 µM in data set [4] (setting [8]) was found to be 35 ± 17%. Moreover, in data set [4] (setting [9]), the activity at 100 µM came to 26 ± 11%.
Consider `CC(=O)Nc1ccc2c(c1)C(=O)c1cc(NC(C)=O)ccc1C2=O` [Compound 26, 2,7-Bis(acetamido)anthraquinone], for which the “Cellular growth rate (%), Mean” value in data set [1] is given as 99.06%. The “Cellular growth rate (%)” value in data set [2] came to 95.28%. Moreover, the “Cellular growth rate (%)” value in data set [3] was found to be 107.23%. Further, the “telomerase inhibition effect in TRAP assay” value in data set [6] is given as “telomerase inhibition effect”. Besides, in data set [4] (setting [10]), the activity at 1 µM worked out at 97 ± 10%, the activity at 10 µM was 87 ± 14% and the activity at 100 µM turned out to be 74 ± 18%.
`O=C(CN1CCCCC1)Nc1ccc2c(c1)C(=O)c1cc(NC(=O)CN3CCCCC3)ccc1C2=O` [Compound 7, 2,7-Bis[2-(piperidino)acetamido]anthraquinone]: the activity at 1 µM in data set [4] (setting [7]) is 74 ± 19%. Also, in data set [4] (setting [8]), the activity at 10 µM was 69 ± 20%. Further, the activity at 100 µM in data set [4] (setting [9]) was found to be 63 ± 15%. The “cytotoxicity … compared with mitoxantrone” value in data set [5] was “better than”.
As to `CN(C)CC(=O)Nc1ccc2c(c1)C(=O)c1cc(NC(=O)CN(C)C)ccc1C2=O` [Compound 8, 2,7-Bis[2-(dimethylamino)acetamido]anthraquinone], in data set [1], the “Cellular growth rate (%), Mean” value was 28.70%. Besides, the “Cellular growth rate (%)” value in data set [2] was 102.30%. The “Cellular growth rate (%)” value in data set [3] was found to be 11.73%. The “telomerase inhibition effect in TRAP assay” value in data set [6] is “telomerase inhibition effect”. In addition, in data set [4] (setting [10]), the activity at 1 µM turned out to be 87 ± 12%, the activity at 10 µM came out at 40 ± 20% and the activity at 100 µM is 21 ± 14%.
On to `O=C(Cc1ccccc1)Nc1ccc2c(c1)C(=O)c1cc(NC(=O)Cc3ccccc3)ccc1C2=O` [Compound 30, 2,7-Bis(phenylacetamido)anthraquinone], for which the activity at 1 µM in data set [4] (setting [7]) was 97 ± 18%. Moreover, the activity at 10 µM in data set [4] (setting [8]) was 91 ± 21%. In addition, in data set [4] (setting [9]), the activity at 100 µM turned out to be 80 ± 17%. The “SEAP (telomerase inhibition)” value in data set [4] (low concentration (1 μM)) was 70±6%. For the same compound, in data set [5] (low concentration (1 μM)), the “MTT assay (cellular cytotoxicity)” value amounted to 107±7%.
